This is an account of results in patent US10882830B2, “Crystal form of ozanimod hydrochloride and processes for preparation therefor” (Receptos LLC, priority 2016, dated 2021).

Holding throughout (format): physicochemical
Series [1] is described as follows: Stability assessment in constant temperature and humidity chambers, crystalline form tested by XRPD. The following applies: 2 weeks. As to the method:
Two samples of Form CS3 of ozanimod hydrochloride were placed in constant temperature and humidity chambers at 25° C./60% RH and 40° C./75% RH for 2 weeks. XRPD was used to test the crystalline form. The XRPD overlay pattern is substantially as depicted in FIG. 8 (from top to bottom: XRPD pattern of Form CS3 before and after being stored under 25° C./60% RH and 40° C./75% RH for 2 weeks). […] It can be seen that Form CS3 of ozanimod hydrochloride has good stability, which is benefit for drug storage.

Series [2] in a line: Solubility assessment: saturated solutions in SGF, FeSSIF and water, concentration by HPLC. The note with it: thermodynamic from solid. As to the method:
Form CS3 of ozanimod hydrochloride was suspended into SGF (Simulated gastric fluids, pH=1.8), FeSSIF (Fed state simulated intestinal fluids, pH=5.0) and water to obtain saturated solutions. After being equilibrated for 1 h, 4 h and 24 h, concentrations of the saturated solutions were measured by HPLC.

Series [3] in a line: Particle size distribution test (Microtrac S3500 laser particle size analyzer, wet process). How it is done:
The particle size distribution test in the present disclosure is acquired by the S3500 laser particle size analyzer of Microtrac. Microtrac S3500 is equipped with the SDC (Sample Delivery Controller). The test is carried out by wet process, and the dispersion medium is Isopar G The parameters are as follow:
Sample of Form CS3 was taken for particle size distribution test.

The nature of series [4]: Hygroscopicity assessment by dynamic vapor sorption (DVS). The following applies: 25° C.; for Weight Gain under 80% RH: DVS, about 10 mg of sample. As to the method: Dynamic Vapor Sorption (DVS) is measured via an SMS (Surface Measurement Systems Ltd.) intrinsic DVS. Typical Parameters for DVS test are as follows:
Gas and flow rate: N2, 200 mL/min
RH range: 0% RH to 95% RH
Dynamic vapor sorption (DVS) was applied to test hygroscopicity of Form CS3 with about 10 mg of sample. The DVS plot is substantially as depicted in FIG. 5.
Description and definition of hygroscopicity (Chinese Pharmacopoeia 2015 edition appendix Drug hygroscopic test guidelines, test at 25° C.+/−1° C., 80% RH). • deliquescent: Sufficient water is absorbed to form a liquid; • very hygroscopic: Increase in mass is equal to or greater than 15%; • hygroscopic: Increase in mass is less than 15% and equal to or greater than 2%; • slightly hygroscopic: Increase in mass is less than 2% and equal to or greater than 0.2%. • no or almost no hygroscopic: Increase in mass is less than 0.2%.

Counter-ions that a name gives are not always drawn.

Turning to `CC(C)Oc1ccc(-c2nc(-c3cccc4c3CC[C@@H]4NCCO)no2)cc1C#N` [Form CS3 of ozanimod hydrochloride, ozanimod hydrochloride], the “Crystalline form change by XRPD after storage” value in series [1] (25° C./60% RH) and in series [1] (40° C./75% RH) was “No form change” throughout. Besides, the solubility at 1 h is 2100 µg/mL in series [2] (fed state simulated intestinal fluid (FeSSIF), FeSSIF pH=5.0, 1 h); 200 µg/mL in series [2] (simulated gastric fluid (SGF), simulated gastric fluid, SGF pH=1.8, 1 h); 1100 µg/mL in series [2] (water, H2O, 1 h). Moreover, the solubility at 4 h is 2100 µg/mL in series [2] (fed state simulated intestinal fluid (FeSSIF), FeSSIF pH=5.0, 4 h); 200 µg/mL in series [2] (simulated gastric fluid (SGF), simulated gastric fluid, SGF pH=1.8, 4 h); 1400 µg/mL in series [2] (water, H2O, 4 h). The solubility at 24 h in series [2] (fed state simulated intestinal fluid (FeSSIF), FeSSIF pH=5.0, 24 h) was 1800 µg/mL; in series [2] (simulated gastric fluid (SGF), simulated gastric fluid, SGF pH=1.8, 24 h), 200 µg/mL; in series [2] (water, H2O, 24 h), 1300 µg/mL. The “MV (average particle size calculated by volume)” value in series [3] (dispersion medium Isopar G, average of 3 runs) is listed as 131.8 μm. Besides, in series [3] (unit not given), the average particle size was found to be 131.8. For the same molecule, the D10 in series [3] (volume distribution, Isopar G) amounted to 19.94 μm. This molecule also registered a D50 in series [3] (volume distribution, Isopar G) of 100.5 μm. The molecule further yielded a D90 in series [3] (volume distribution, Isopar G) of 287.0 μm. For the same molecule, the “Hygroscopicity class according to the definition of hygroscopicity” value in series [4] (Chinese Pharmacopoeia 2015 definition, 80% RH) is on record as “hygroscopic”. For the same molecule, the “Weight Gain under 80% RH” value amounted to 2.50% in series [4] (hydrochloride) and 2.50% in series [4] (listed as Form CS3, hydrochloride).
